{
  "source": "patent US8586588B2",
  "about": "“Aryl pyridazinone derivatives and their use as H3 receptor ligands” (Cephalon, Inc., priority 2006, dated 2013)",
  "note": "Counter-ions that a name gives are not always drawn.",
  "data": [
    {"values": [
      {"smiles": "CN1N=C(c2ccc(OC3CCN(C4CCCC4)CC3)cc2)C2CC2C1=O", "note": "(centres unmarked) (as salt: HCl) [Example 260, 5-[4-(1-Cyclopentyl-piperidin-4-yloxy)-phenyl]-3-methyl-3,4-diaza-bicyclo[4.1.0]hept-4-en-2-one]", "melting point": "264 to 266 °C"},
      {"smiles": "O=C1NN=C(c2ccc(OC3CCN(C4CCCC4)CC3)cc2)C2CC12", "note": "(centres unmarked) (as salt: HCl) [Example 261, 5-[4-(1-Cyclopentyl-piperidin-4-yloxy)-phenyl]-3,4-diaza-bicyclo[4.1.0]hept-4-en-2-one]", "melting point": "288 to 290 °C"},
      {"smiles": "Cc1ccc(=O)n(-c2ccc(OCCCN3CCC[C@H]3C)cc2)n1", "note": "(as salt: fumarate) [Example 201, 6-Methyl-2-{4-[3-((R)-2-methyl-pyrrolidin-1-yl)-propoxy]-phenyl}-2H-pyridazin-3-one]", "melting point": "168 to 170 °C"},
      {"smiles": "O=c1ccc(-c2ccccc2)nn1-c1ccc(OC2CCN(C3CCC3)CC2)nc1", "note": "(as salt: fumarate) [Example 203, 2-[6-(1-Cyclobutyl-piperidin-4-yloxy)-pyridin-3-yl]-6-phenyl-2H-pyridazin-3-one]", "melting point": "155 to 159 °C"},
      {"smiles": "C[C@@H]1CCCN1CCCOc1ccc(-n2nc(C3CC3)ccc2=O)cc1", "note": "(as salt: fumarate) [Example 262, 6-Cyclopropyl-2-{4-[3-((R)-2-methyl-pyrrolidin-1-yl)-propoxy]-phenyl}-2H-pyridazin-3-one]", "melting point": "51 to 55 °C"},
      {"smiles": "C[C@@H]1CCCN1CCCOc1ccc2cnn(C)c(=O)c2c1", "note": "(as salt: hydrochloride) [Example 79, 2-Methyl-7-[3-((R)-2-methyl-pyrrolidin-1-yl)-propoxy]-2H-phthalazin-1-one]", "melting point": "252 to 253 °C"},
      {"smiles": "Cc1nn(C)c(=O)cc1-c1ccc(OCCCN2CCCCC2)cc1", "note": "(as salt: hydrochloride) [Example 87, 2,6-Dimethyl-5-[4-(3-piperidin-1-yl-propoxy)-phenyl]-2H-pyridazin-3-one]", "melting point": "210 to 211 °C"},
      {"smiles": "Cc1n[nH]c(=O)cc1-c1ccc(OCCCN2CCC[C@H]2C)cc1", "note": "(as salt: hydrochloride) [Example 88, 6-Methyl-5-{4-[3-((R)-2-methyl-pyrrolidin-1-yl)-propoxy]-phenyl}-2H-pyridazin-3-one]", "melting point": "115 °C (dec.)"},
      {"smiles": "Cc1n[nH]c(=O)cc1-c1ccc(OCCCN2CCCCCC2)cc1", "note": "(as salt: hydrochloride) [Example 90, 5-[4-(3-Azepan-1-yl-propoxy)-phenyl]-6-methyl-2H-pyridazin-3-one]", "melting point": "204 to 206 °C"},
      {"smiles": "C[C@@H]1CCCN1CCCOc1ccc(-c2cnn(C)c(=O)c2)cc1", "note": "(as salt: hydrochloride) [Example 91, 2-Methyl-5-{4-[3-((R)-2-methyl-pyrrolidin-1-yl)-propoxy]-phenyl}-2H-pyridazin-3-one]", "melting point": "222 to 223 °C"},
      {"smiles": "Cn1ncc(-c2ccc(OCCCN3CCCCC3)cc2)cc1=O", "note": "(as salt: hydrochloride) [Example 92, 2-Methyl-5-[4-(3-piperidin-1-yl-propoxy)-phenyl]-2H-pyridazin-3-one]", "melting point": "253 to 254 °C"},
      {"smiles": "Cn1ncc(-c2ccc(OCCCN3CCCCCC3)cc2)cc1=O", "note": "(as salt: hydrochloride) [Example 93, 5-[4-(3-Azepan-1-yl-propoxy)-phenyl]-2-methyl-2H-pyridazin-3-one]", "melting point": "247 to 248 °C"},
      {"smiles": "O=c1cc(-c2ccc(OCCCN3CCCCC3)cc2)cn[nH]1", "note": "(as salt: hydrochloride) [Example 97]", "melting point": "249 to 250 °C"},
      {"smiles": "Cc1cccnc1-n1ncc(-c2ccc(OCCCN3CCC[C@H]3C)cc2)cc1=O", "note": "(as salt: hydrochloride) [Example 99, 2-(3-Methyl-pyridin-2-yl)-5-{4-[3-((R)-2-methylpyrrolidin-1-yl)-propoxy]-phenyl}-2H-pyridazin-3-one]", "melting point": "98 to 100 °C"},
      {"smiles": "Cc1nn(-c2ccccn2)c(=O)cc1-c1ccc(OCCCN2CCC[C@H]2C)cc1", "note": "(as salt: hydrochloride) [Example 100, 6-Methyl-5-{4-[3-((R)-2-methyl-pyrrolidin-1-yl)-propoxy]-phenyl}-2-pyridin-2-yl-2H-pyridazin-3-one]", "melting point": "155 to 157 °C"},
      {"smiles": "Cc1cccnc1-n1nc(C)c(-c2ccc(OCCCN3CCC[C@H]3C)cc2)cc1=O", "note": "(as salt: hydrochloride) [Example 101, 6-Methyl-2-(3-methyl-pyridin-2-yl)-5-{4-[3-((R)-2-methyl-pyrrolidin-1-yl)-propoxy]-phenyl}-2H-pyridazin-3-one]", "melting point": "106 °C (dec.)"},
      {"smiles": "C[C@@H]1CCCN1CCCOc1ccc(C2=NNC(=O)CC2c2ccccn2)cc1", "note": "(stereo partly drawn) (as salt: hydrochloride) [Example 111, 6-{4-[3-((R)-2-Methyl-pyrrolidin-1-yl)-propoxy]-phenyl}-5-pyridin-2-yl-4,5-dihydro-2H-pyridazin-3-one]", "melting point": "133 °C (dec.)"},
      {"smiles": "C[C@@H]1CCCN1CCCOc1ccc(-c2n[nH]c(=O)cc2-c2ccccn2)cc1", "note": "(as salt: hydrochloride) [Example 112, 6-{4-[3-((R)-2-Methyl-pyrrolidin-1-yl)-propoxy]-phenyl}-5-pyridin-2-yl-2H-pyridazin-3-one]", "melting point": "234 °C (dec.)"},
      {"smiles": "O=c1cc(-c2ccc(OC3CCN(C4CCC4)CC3)nc2)cn[nH]1", "note": "(as salt: hydrochloride) [Example 117, 5-[6-(1-Cyclobutyl-piperidin-4-yloxy)-pyridin-3-yl]-2H-pyridazin-3-one]", "melting point": "232 to 234 °C"},
      {"smiles": "C[C@@H]1CCCN1CCCOc1ccc(-c2ccc(=O)n(CCF)n2)cc1", "note": "(as salt: hydrochloride) [Example 118, 2-(2-Fluoro-ethyl)-6-{4-[3-((R)-2-methyl-pyrrolidin-1-yl)-propoxy]-phenyl}-2H-pyridazin-3-one]", "melting point": "135 to 136 °C"},
      {"smiles": "COc1cn[nH]c(=O)c1-c1ccc(OCCCN2CCC[C@H]2C)cc1", "note": "(as salt: hydrochloride) [Example 237, 5-Methoxy-4-{4-[3-((R)-2-methyl-pyrrolidin-1-yl)-propoxy]-phenyl}-2H-pyridazin-3-one]", "melting point": "135 to 140 °C"},
      {"smiles": "CC(C)n1nc(-c2ccc(OCCCN3CCC[C@H]3C)cc2)ccc1=O", "note": "(as salt: tartrate) [Example 5, 2-Isopropyl-6-{4-[3-((R)-2-methyl-pyrrolidin-1-yl)-propoxy]-phenyl}-2H-pyridazin-3-one]", "melting point": "60 to 64 °C"},
      {"smiles": "CCn1nc(-c2ccc(OCCCN3CCC[C@H]3C)cc2)ccc1=O", "note": "(as salt: tartrate) [Example 6, 2-Ethyl-6-{4-[3-((R)-2-methyl-pyrrolidin-1-yl)-propoxy]-phenyl}-2H-pyridazin-3-one]", "melting point": "58 to 62 °C"},
      {"smiles": "CC1CC(=O)NN=C1c1ccc(OCCCN2CCC[C@H]2C)cc1", "note": "(mixture of isomers) (as salt: HCl) [Example 194, 5-Methyl-6-{4-[3-((R)-2-methyl-pyrrolidin-1-yl)-propoxy]-phenyl}-4,5-dihydro-2H-pyridazin-3-one]", "melting point": "169 to 171 °C"},
      {"smiles": "CC1CC(=O)NN=C1c1ccc(OCCCN2CCCC2)cc1", "note": "(racemic) (as salt: HCl) [Example 198, 5-Methyl-6-[4-(3-pyrrolidin-1-yl-propoxy)-phenyl]-4,5-dihydro-2H-pyridazin-3-one]", "melting point": "161 to 163 °C"},
      {"smiles": "C[C@@H]1CCCN1CCCOc1ccc(C2=NNC(=O)C3CC23)cc1", "note": "(mixture of isomers) (as salt: HCl) [Example 243, 5-{4-[3-((R)-2-Methyl-pyrrolidin-1-yl)-propoxy]-phenyl}-3,4-diaza-bicyclo[4.1.0]hept-4-en-2-one]", "melting point": "136 to 139 °C"}
    ]}
  ]
}
